Drawing on BindingDB's records for PubMed 11454918, this text covers Ki for four molecules.

Each structure is given as a SMILES string. Structures can show the parent of a compound that is named as a salt. Where only a bound is given, the exact number is not on record here.

Experiment [1] addresses 5-hydroxytryptamine receptor 1D (Homo sapiens, UniProt P28221).
Experiment [2] deals with 5-hydroxytryptamine receptor 1B (Homo sapiens, UniProt P28222).
Experiment [3] addresses T1, Alpha-2A adrenergic receptor (Homo sapiens, UniProt P08913).
T1 sequence (P08913 whole entry): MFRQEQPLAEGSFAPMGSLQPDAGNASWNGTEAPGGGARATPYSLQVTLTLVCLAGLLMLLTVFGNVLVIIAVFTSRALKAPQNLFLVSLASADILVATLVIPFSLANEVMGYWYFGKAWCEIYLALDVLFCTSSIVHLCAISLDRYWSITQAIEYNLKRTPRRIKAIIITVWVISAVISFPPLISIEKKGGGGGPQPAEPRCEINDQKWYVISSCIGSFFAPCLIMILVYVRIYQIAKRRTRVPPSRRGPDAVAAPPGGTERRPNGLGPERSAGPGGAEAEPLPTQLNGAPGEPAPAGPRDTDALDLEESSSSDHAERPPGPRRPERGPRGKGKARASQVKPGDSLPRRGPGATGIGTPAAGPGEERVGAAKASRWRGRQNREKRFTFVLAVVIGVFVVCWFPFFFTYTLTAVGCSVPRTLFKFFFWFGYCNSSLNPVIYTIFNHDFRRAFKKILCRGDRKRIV

Experiment [4] concerns the target T2, 5-hydroxytryptamine receptor 1A (Homo sapiens, UniProt P08908).
T2 sequence (P08908 whole entry): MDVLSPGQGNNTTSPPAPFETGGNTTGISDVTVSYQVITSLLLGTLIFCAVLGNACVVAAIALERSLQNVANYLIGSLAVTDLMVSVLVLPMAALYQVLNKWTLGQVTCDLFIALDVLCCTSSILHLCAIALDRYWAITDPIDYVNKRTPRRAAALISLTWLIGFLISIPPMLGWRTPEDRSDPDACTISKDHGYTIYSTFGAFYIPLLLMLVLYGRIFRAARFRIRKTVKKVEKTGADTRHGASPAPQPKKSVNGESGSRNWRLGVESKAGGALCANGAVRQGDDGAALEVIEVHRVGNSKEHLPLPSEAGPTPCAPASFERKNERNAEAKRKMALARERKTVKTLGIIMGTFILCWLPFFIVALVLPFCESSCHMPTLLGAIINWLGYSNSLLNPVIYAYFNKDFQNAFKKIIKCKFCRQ

Experiment [5] concerns the target T3, Alpha-2C adrenergic receptor (Rattus norvegicus, UniProt P22086).
T3 sequence (P22086 whole entry): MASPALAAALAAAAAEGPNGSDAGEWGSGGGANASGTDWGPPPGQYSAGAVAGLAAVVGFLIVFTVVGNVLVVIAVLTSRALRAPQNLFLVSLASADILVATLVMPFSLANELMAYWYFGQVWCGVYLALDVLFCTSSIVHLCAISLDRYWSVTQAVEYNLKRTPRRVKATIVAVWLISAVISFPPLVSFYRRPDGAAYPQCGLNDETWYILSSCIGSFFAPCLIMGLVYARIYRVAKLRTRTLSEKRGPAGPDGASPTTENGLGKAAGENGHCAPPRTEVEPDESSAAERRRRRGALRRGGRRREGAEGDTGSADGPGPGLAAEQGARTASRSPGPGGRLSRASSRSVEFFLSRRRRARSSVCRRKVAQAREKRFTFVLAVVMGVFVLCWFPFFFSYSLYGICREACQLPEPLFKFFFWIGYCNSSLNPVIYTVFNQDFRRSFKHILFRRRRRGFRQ

Experiment [6] has as its target T4, Alpha-1A adrenergic receptor (Rattus norvegicus, UniProt P43140).
T4 sequence (P43140 whole entry): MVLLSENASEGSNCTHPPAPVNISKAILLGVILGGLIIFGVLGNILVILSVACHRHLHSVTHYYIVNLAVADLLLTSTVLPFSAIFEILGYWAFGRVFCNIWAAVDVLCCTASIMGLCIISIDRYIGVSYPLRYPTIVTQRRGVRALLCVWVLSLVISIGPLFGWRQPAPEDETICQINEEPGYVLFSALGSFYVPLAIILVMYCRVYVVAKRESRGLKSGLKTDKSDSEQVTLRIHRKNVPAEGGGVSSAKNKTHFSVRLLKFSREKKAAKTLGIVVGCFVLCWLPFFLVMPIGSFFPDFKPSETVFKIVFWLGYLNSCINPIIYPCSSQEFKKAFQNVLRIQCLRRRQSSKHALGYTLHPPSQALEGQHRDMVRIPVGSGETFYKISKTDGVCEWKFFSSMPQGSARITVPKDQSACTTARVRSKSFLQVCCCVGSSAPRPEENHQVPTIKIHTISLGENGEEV

For experiment [7], the target named is Sodium-dependent dopamine transporter (Rattus norvegicus, UniProt P23977).
Experiment [8] deals with T5, Alpha-1A adrenergic receptor (Homo sapiens, UniProt P35348).
T5 sequence (P35348 whole entry): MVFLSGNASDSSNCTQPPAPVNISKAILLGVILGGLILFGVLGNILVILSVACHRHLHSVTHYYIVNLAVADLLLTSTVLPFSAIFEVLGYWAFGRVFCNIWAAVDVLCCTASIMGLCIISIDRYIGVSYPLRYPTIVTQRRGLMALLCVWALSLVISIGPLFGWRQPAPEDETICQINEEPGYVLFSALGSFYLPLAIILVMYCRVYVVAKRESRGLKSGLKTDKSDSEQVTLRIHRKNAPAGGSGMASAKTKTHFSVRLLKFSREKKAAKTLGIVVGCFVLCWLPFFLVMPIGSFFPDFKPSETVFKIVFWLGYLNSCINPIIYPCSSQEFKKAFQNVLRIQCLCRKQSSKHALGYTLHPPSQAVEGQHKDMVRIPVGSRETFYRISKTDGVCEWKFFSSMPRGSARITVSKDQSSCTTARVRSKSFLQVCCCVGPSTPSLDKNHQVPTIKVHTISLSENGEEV

Experiment [9] deals with Sodium-dependent dopamine transporter (Homo sapiens, UniProt Q01959).
A further experiment deals with D(2) dopamine receptor (Homo sapiens, UniProt P14416).
Experiment [10] addresses T6, 5-hydroxytryptamine receptor 2C (Homo sapiens, UniProt P28335).
T6 sequence (P28335 whole entry): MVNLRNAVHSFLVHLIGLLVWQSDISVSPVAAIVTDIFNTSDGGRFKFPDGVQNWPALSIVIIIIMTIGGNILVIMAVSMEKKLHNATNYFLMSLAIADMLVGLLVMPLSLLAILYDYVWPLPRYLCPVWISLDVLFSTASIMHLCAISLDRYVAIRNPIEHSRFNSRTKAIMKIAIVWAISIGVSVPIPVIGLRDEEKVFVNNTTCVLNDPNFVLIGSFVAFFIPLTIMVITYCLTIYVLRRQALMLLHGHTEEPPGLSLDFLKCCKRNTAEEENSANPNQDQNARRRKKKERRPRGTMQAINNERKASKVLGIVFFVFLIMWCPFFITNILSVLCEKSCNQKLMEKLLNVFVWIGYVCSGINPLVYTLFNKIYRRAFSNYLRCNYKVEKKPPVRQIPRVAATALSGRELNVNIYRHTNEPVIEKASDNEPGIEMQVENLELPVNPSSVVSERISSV

Experiment [11] addresses Norepinephrine transporter (Rattus norvegicus, UniProt Q9JIA2).
The target of experiment [12] is Sodium-dependent noradrenaline transporter (Homo sapiens, UniProt P23975).
For experiment [13], the target named is Sodium-dependent serotonin transporter (Rattus norvegicus, UniProt P31652).
Sodium-dependent serotonin transporter, sequence (P31652 whole entry): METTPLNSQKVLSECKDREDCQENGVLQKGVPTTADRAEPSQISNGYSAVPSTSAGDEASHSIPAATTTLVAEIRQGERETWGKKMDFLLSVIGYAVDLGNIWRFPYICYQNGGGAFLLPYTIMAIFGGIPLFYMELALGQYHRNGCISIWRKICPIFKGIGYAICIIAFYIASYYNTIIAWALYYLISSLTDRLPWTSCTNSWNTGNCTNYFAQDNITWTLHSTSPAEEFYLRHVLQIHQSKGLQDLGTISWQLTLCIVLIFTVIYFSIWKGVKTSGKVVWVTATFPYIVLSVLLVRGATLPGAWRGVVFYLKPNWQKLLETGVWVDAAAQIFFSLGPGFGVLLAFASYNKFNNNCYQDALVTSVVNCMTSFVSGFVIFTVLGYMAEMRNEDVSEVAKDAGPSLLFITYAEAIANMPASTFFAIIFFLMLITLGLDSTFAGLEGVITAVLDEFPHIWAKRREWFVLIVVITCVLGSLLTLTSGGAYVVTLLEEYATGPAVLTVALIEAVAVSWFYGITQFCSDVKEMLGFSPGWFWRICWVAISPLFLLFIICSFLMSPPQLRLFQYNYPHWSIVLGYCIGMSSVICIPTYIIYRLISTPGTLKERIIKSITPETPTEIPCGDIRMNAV

D(2) dopamine receptor, sequence (P14416 whole entry): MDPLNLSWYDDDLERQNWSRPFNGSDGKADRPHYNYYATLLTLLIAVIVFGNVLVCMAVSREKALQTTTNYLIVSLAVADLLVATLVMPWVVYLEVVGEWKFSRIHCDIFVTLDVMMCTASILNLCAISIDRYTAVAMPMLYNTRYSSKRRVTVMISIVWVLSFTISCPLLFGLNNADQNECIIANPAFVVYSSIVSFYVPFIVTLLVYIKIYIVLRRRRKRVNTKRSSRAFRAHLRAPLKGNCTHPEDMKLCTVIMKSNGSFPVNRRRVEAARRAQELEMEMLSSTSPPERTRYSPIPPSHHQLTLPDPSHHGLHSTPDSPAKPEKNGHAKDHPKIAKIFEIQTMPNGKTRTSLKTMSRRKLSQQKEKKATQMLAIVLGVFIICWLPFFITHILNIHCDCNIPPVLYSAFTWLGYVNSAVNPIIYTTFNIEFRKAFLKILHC
5-hydroxytryptamine receptor 1D, sequence (P28221 whole entry): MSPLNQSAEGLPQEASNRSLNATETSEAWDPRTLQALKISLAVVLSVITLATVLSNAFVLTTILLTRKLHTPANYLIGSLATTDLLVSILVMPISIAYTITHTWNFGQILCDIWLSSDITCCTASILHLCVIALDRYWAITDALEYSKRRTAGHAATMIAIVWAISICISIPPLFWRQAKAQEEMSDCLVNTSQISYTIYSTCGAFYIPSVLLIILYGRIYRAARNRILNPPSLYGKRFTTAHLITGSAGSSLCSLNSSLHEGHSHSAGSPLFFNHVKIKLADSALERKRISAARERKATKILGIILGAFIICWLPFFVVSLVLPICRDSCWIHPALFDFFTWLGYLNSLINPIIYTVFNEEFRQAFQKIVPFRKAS
5-hydroxytryptamine receptor 1B, sequence (P28222 whole entry): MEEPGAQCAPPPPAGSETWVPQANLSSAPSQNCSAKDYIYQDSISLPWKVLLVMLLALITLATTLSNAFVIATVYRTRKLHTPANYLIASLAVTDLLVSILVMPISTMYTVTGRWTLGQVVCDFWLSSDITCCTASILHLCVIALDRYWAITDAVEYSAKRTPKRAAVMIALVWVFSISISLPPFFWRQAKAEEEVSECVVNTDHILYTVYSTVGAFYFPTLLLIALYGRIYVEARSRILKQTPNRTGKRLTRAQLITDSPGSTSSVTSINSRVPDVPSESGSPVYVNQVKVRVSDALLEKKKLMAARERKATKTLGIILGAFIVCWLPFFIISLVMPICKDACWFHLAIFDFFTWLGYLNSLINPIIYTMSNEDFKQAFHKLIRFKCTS
Sodium-dependent dopamine transporter (Rattus norvegicus, UniProt P23977), sequence (P23977 whole entry): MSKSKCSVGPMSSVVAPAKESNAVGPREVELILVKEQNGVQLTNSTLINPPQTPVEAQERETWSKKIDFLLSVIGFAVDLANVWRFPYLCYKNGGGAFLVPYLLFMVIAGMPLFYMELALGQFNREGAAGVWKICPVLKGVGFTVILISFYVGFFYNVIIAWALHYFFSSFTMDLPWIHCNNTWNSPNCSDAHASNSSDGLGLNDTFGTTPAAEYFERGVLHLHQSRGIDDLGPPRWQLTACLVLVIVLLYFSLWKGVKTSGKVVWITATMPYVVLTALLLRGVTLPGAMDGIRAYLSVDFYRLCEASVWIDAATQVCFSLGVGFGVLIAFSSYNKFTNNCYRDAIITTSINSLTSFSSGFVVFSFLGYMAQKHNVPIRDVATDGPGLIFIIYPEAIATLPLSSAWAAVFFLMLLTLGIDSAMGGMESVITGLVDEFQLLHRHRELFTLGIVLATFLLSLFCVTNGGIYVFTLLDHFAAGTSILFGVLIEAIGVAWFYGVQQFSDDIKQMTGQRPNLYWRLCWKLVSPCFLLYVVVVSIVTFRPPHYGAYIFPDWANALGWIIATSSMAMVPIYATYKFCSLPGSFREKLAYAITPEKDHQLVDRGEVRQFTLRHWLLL
Sodium-dependent dopamine transporter (Homo sapiens, UniProt Q01959), sequence (Q01959 whole entry): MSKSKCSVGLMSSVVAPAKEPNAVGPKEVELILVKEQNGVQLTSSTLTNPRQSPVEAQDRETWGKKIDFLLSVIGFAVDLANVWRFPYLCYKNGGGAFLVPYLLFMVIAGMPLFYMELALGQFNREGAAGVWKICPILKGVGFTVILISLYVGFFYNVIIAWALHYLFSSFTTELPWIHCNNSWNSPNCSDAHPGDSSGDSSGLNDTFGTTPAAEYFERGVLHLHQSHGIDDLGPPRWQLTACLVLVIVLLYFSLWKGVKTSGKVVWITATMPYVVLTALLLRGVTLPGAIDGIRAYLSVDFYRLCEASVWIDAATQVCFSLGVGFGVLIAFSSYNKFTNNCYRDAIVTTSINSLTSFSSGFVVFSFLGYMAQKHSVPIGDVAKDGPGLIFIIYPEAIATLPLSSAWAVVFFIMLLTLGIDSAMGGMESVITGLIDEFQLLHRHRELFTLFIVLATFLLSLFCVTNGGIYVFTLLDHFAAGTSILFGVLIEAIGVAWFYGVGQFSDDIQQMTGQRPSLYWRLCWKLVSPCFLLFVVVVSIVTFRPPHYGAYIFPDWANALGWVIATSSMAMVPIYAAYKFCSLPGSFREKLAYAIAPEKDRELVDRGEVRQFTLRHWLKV
Sodium-dependent noradrenaline transporter, sequence (P23975 whole entry): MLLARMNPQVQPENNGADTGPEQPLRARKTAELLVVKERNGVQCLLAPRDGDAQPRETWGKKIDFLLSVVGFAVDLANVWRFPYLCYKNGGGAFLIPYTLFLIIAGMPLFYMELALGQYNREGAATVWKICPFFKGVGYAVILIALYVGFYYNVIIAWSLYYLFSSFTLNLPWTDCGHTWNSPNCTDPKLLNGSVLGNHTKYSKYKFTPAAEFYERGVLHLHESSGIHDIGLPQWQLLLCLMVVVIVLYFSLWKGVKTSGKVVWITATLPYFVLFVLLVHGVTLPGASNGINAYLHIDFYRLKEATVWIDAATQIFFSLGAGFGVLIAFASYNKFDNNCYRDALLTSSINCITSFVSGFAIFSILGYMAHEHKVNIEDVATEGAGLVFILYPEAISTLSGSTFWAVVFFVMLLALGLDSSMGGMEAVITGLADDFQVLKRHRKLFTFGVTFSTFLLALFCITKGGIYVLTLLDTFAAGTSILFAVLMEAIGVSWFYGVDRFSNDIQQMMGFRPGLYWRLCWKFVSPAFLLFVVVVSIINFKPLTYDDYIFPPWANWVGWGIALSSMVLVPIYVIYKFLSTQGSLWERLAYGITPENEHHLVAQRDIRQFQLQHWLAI

The Ki is the equilibrium dissociation constant of an inhibitor or competing ligand from its target. Higher therefore signals lower affinity. As for `CN(C)CCCC1(c2ccc(F)cc2)OCc2cc(C#N)ccc21` (configuration not stated), the Ki in experiment [1], in experiment [2], in experiment [3], in experiment [4], in experiment [5] and in experiment [6] was greater than 10 µM in each case.

In the case of `CN(C)CCCN1c2ccccc2CCc2ccc(Cl)cc21` [CLOMIPRAMINE HYDROCHLORIDE], the Ki in experiment [1] was greater than 10 µM; in [7], 1.23 µM; in experiment [2] it was greater than 10 µM; in experiment [3] it was 0.525 µM; in [4], greater than 10 µM; in experiment [8] it was 0.0032 µM. Further, the Ki in experiment [9] was 3.02 µM; at D(2) dopamine receptor it was 0.0776 µM; in experiment [5], greater than 10 µM; in [10], 0.0646 µM.

As to `COc1ccc(C(CN(C)C)C2(O)CCCCC2)cc1` (configuration not stated) [NSC_62923], the Ki (in experiment [1]; in [3]; in experiment [4]; in [8]; on D(2) dopamine receptor; in experiment [5]) was greater than 10 µM each time. This molecule yielded a Ki in experiment [10] greater than 10 µM.

For the molecule `COc1ccc2c(c1)C(CN(C)C)(C1(O)CCCCC1)C2` (configuration not stated) [S33005], the Ki in experiment [1] was greater than 10 µM; in [11] it was 0.178 µM; in [7] it was greater than 10 µM; in [2], greater than 10 µM; in experiment [12], 1.51 µM; in [13], 0.00195 µM. Also, the Ki (in experiment [3]; in [4]; in experiment [8]; in [9]; on D(2) dopamine receptor; in experiment [5]) was greater than 10 µM each time. The Ki in [10] and in experiment [6] was greater than 10 µM in each case.
